Values quoted from earlier work in US9457010B2, “Compositions for use in treating or preventing metabolic stress-induced lung injury and methods for increasing physical capacity of mammalian livestock” (Nutri-fit GmbH & Co. KG, priority 2009, dated 2016).

Tested on: pulmonary function
Conditions: 3 weeks isocaloric diet; endotoxin challenge

CCCCC/C=C\C/C=C\CCCCCCCC(=O)O [linoleate]
histological evidence in lung: vascular congestion, intra-alveolar edema and alveolar septa thickening
